Assay [1] deals with ulcer formation induced by indomethacin. The experiment in a line: inhibiting action on the formation of ulcer in rats induced by indomethacin. Type of assay: in vivo, Male rats (Sprague Dawley species). Particulars: indomethacin 20 mg/kg peroral, compound 0.5 × 2 mg/kg, S.C.; for Inhibiting rate (%): inhibition of ulcer formation. Here is the method: By the method of Y. H. Lee et al. [Arch. Int. Pharmacodyn. Ther., 192, 370 (1971)], the inhibiting action of the compound No. 122 in Example 11 and compound No. 158 in Example 21 on the formation of ulcer in rats induced by indomethacin, a typical non-steroid anti-inflammatory agent, was evaluated.
Male rats (Sprague Dawley species; body weight 240-270 g) were used in the experiment. These rats had been caused to fast for 24 hours in separate cages before the initiation of the experiment. Indomethacin was orally administered to these rats, and 6 hours later, they were killed. Formation of ulcer in the fundus part was examined by measuring the area of the ulcer-forming part under a microscope. The compounds Nos. 122 and 158 were each subcutaneously administered at the end of 30 minutes and 2 hours, respectively, after the administration of indomethacin. The ulcer formation inhibiting rate of these compounds against a predetermined dose of indomethacin was determined.
The indomethacin was administered as a 0.5 ml aqueous suspension (containing two drops of a Tween-type nonionic surfactant per 14 ml of water). The compounds Nos. 122 and 158 were given in the form of a solution in a phosphate buffer (pH 7.4).

For assay [2], the system named is platelet aggregation (rabbit PRP). The experiment in a line: Activity of Inhibiting Platelet Aggregation In Vitro (rabbit PRP, ADP). The class given is cell-based. As to conditions: ADP-disodium salt 5 μM final, 37° C., 2 min pre-incubation, minimum concentration whose inhibiting rate exceeded 50%. As for the experimental part: The platelet aggregation inhibiting activities of test compounds including 7-hydroxy PGE1 of this invention were tested using rabbit PRP. The results are shown in terms of their concentrations at 50% inhibition (IC50) of platelet aggregation. As an aggregating agent, ADP-disodiumsalt having a final concentration of 5 μM was used.
(1) Preparation of platelet-enriched plasma (PRP)
Citrated blood (consisting of 1 part by volume of […] sodium citrate and 9 parts by volume of the blood) was prepared by taking blood from the ear veins of male rabbits having a body weight of 2.0 to 3.0 kg (white ordinary species). The citrated blood was centrifuged at 100 G for 10 minutes at room temperature, and the supernatant (PRP) was separated.
The PRP obtained was stored at room temperature, and used as early as possible. PRP stored for more than 4 hours after preparation was not used.
(2) Preparation of test drugs
Each test drug was dissolved in ethyl alcohol to a concentration of 10 mg/ml or 1 mg/ml, and diluted with physiological saline to adjust its concentration.
(3) Preparation of the aggregating agent
ADP disodium salt (a product of Kyowa Hakko Kabushiki Kaisha) was dissolved in 0.1 M tris-HCl buffer (pH 7.8) to prepare a solution having a concentration of 50 μM (final concentration 5 μM).
(1) Degree of platelet aggregation in a blank
Physiological saline (25 μl) and 25 μl of the aggregating agent solution were added to 200 μl of PRP which had been warmed in a cuvette at 37° C. of an aggregometer to aggregate platelet. The aggregation curve was recorded for 3 minutes by an aggregometer (a product of Rika Denki Kabushiki Kaisha). The maximum degree of aggregation in this platelet aggregation was defined as the maximum degree of aggregation of the blank.
(2) Test for inhibition of platelet aggregation
The solution of test drug (25 μl) was added to 200 of PRP, and the mixture was pre-incubated for 2 minutes in a cuvette of an aggregometer. Then, 25 μl of the ADP disodium solution (50 μM) was added, and the aggregation curve was recorded for 3 minutes. The maximum degree of platelet aggregation within this period was measured, and the inhibiting rate was calculated from the following equation. The mimimum concentration (expressed as final concentration) of the drug whose inhibiting rate exceeded 50% was shown as an IC50 value. [formula]
For details of the in vitro platelet aggregation inhibiting test, see H. M. Davis, J. Phyllis, K. Paul and W. Terry: Thromb. Res. 11, 217-226 (1977) and R. E. Anderson and J. G. Foulks: Thromb. Haemos. 36, 343-359 (1976).

Structures are written as SMILES. Where two headings read alike, the source gives them in different places.

As to `CCCCCC(O)/C=C/C1C(O)CC(=O)C1C(O)CCCCCC(=O)OC` (stereo not drawn) [No. 122, 2-(1-hydroxy-7-keto-8-oxanonyl)-3-(3-hydroxy-1-trans-octenyl)-4-hydroxycyclopentanone], in assay [1], the “Ulcer formation (ulcer coefficient) Average value ± S.E.M.” value came out at 12.1 ± 4.1 and the “Inhibiting rate (%)” value was found to be 40.4%. One may read the IC50 as the point on the concentration scale where inhibition reaches its midpoint. Turning to `CCCCCC(O)/C=C/C1C(O)CC(=O)C1C(O)CCCCCC(=O)OC` (stereo not drawn) [No. 144, dl 2-(1-hydroxy-7-keto-8-oxanonyl)-3-(3-hydroxy-1-trans-octenyl)-4-hydroxycyclopentanone], the IC50 in assay [2] was above 10 µg/mL. Regarding `CCCCCC(O)/C=C/C1C(O)CC(=O)C1C(O)CCCCCC(=O)OC` (stereo not drawn) [No. 146, dl 2-(1-hydroxy-7-keto-8-oxanonyl)-3-(3-hydroxy-1-trans-octenyl)-4-hydroxycyclopentanone], in assay [2], the half-maximal inhibitory concentration (IC50) came to 24.5 µg/mL. Turning to `CCCCCC(O)/C=C/C1C(O)CC(=O)C1C(O)CCCCCC(=O)OC` (stereo not drawn) [No. 148, dl 2-(1-hydroxy-7-keto-8-oxanonyl)-3-(3-hydroxy-1-trans-octenyl)-4-hydroxycyclopentanone], in assay [2], the IC50 is above 10 µg/mL. The same measure, in the same setting: to `CCCCCC(O)/C=C/C1C(O)CC(=O)C1C(O)CCCCCC(=O)OC` (stereo not drawn) [No. 150, dl 2-(1-hydroxy-7-keto-8-oxanonyl)-3-(3-hydroxy-1-trans-octenyl)-4-hydroxycyclopentanone] belongs above 10 µg/mL.

For `CCCCC[C@H](O)/C=C/C1C(C(O)CCCCCC(=O)OC)C(=O)C[C@H]1O` (stereo partly drawn) [No. 156, 2-(1-hydroxy-7-keto-8-oxanonyl)-3-[3(S)-hydroxy-1-trans-octenyl]-4(R)-hydroxycyclopentanone], the IC50 in assay [2] (Oryctolagus cuniculus, Platelet, read-out: IC50) turned out to be 26.3 µg/mL. Take `CCCCC[C@H](O)/C=C/C1C(C(O)CCCCCC(=O)OC)C(=O)C[C@H]1O` (stereo partly drawn) [No. 158, 2-(1-hydroxy-7-keto-8-oxanonyl)-3-[3(S)-hydroxy-1-trans-octenyl]-4(R)-hydroxycyclopentanone]: the IC50 in assay [2] came out at 41.5 µg/mL. In assay [1], the “Ulcer formation (ulcer coefficient) Average value ± S.E.M.” value worked out at 15.8 ± 5.1 and the “Inhibiting rate (%)” value turned out to be 22.2%.

The values are drawn from patent US4315032A, “Process for preparation of adjacently disubstituted ketones” (Teitin Limited, priority 1979, dated 1982).
